The values that follow come from paper PMC7075364, “Synthesis and biological evaluation of small molecule modulators of CDK8/Cyclin C complex with phenylaminoquinoline scaffold” (PeerJ, 2020).

Molecules are shown by their SMILES. Entries after “also recorded” stand apart in the source; their conditions may differ. Where two headings read alike, the source gives them in different places.

As usually defined, the melting point is the temperature, or range, at which the solid turns liquid. The term IC50 denotes the midpoint of a concentration-inhibition curve. By inhibition is commonly meant how much of the control response was suppressed.

The target in data set [1] is T1, CDK8/CycC (Homo sapiens, UniProt P49336).
T1 construct: purchased Reaction Biology Corp. (Kinase HotSpot service)
Put plainly: In vitro kinase inhibition assay (Reaction Biology HotSpot, 10 dose IC50 singlet). Format: biochemical. The note with it: for IC50 / inhibition at 20 µM: CDK8/CycC; for IC50: 10 dose IC50 singlet assay; for inhibition at 20 µM: compound at 20 µM, read-out: % enzyme inhibition ± SD (20 µM). The procedure:
Reaction Biology Corp. Kinase HotSpotSM service (http://www.reactionbiology.com) was used for the screening of tested compounds. […] Activity of kinases were assessed by the HotSpot assay platform, which contained specific kinase/substrate pairs along with required cofactors ([Abdelazem et al., 2015]; [Abdelazem et al., 2016]; [Al-Sanea et al., 2016a]; [Al-Sanea et al., 2015a]; [Al-Sanea et al., 2015b]; [Al-Sanea, El-Deeb & Lee, 2013]; [Park et al., 2014]).
The newly prepared phenylaminoquinolines 5a–i were biologically evaluated as potential CDK8/CycC complex inhibitors.

The subject of data set [2] is CDK8. The note with it: cited from earlier work.
The test system of data set [3] is acute myeloid leukemia (AML). Details: method as in earlier work. The note with it: ref Cee et al., 2009, Crown, 2017, Pelish et al., 2015, Rzymski et al.; cited from earlier work.

T1 sequence (P49336 whole entry): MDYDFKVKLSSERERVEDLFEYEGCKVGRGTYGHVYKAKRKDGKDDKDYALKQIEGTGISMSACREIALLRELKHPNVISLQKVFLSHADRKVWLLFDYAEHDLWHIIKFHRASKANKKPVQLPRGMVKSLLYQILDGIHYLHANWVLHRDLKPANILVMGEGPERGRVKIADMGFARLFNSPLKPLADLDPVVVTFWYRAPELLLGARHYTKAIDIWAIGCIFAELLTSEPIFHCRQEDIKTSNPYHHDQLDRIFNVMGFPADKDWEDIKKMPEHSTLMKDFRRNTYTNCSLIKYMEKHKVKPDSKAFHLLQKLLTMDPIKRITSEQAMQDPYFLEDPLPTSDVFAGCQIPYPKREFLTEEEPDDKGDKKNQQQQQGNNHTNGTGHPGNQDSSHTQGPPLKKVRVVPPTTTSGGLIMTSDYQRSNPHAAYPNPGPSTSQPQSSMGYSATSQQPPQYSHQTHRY
T1 sequence (P24863 whole entry partner): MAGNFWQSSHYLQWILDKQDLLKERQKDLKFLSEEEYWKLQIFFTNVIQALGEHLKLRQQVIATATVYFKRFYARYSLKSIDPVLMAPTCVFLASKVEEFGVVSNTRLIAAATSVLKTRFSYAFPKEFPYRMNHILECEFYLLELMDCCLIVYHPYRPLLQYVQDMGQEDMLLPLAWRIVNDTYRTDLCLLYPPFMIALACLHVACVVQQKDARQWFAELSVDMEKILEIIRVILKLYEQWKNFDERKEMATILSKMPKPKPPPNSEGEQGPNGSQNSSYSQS

Turning to `CCOC(=O)c1cnc2ccc(Br)cc2c1Nc1cccc(S(N)(=O)=O)c1` [5a, Ethyl 6-Bromo-4-(3-sulfamoyl-phenylamino)-quinoline-3-carboxylate], the melting point lay in the range of 235.6 to 237.2 °C. In data set [1] (CDK8/CycC IC50 of 5a compared with 5d), the “fold decrease in potency relative to 5d” value turned out to be 6 fold. For the same compound, in data set [1], the IC50 entry was “single digit micromolar potency” and the inhibition at 20 µM worked out at 83.9 ± 1.83%. Besides, in data set [1] (read-out: IC50), the IC50 amounted to 3.98 µM.
Consider `CCOC(=O)c1cnc2ccc(OC)cc2c1Nc1cccc(S(N)(=O)=O)c1` [5b, Ethyl 6-methoxy-4-((3-sulfamoylphenyl)amino)quinoline-3-carboxylate], for which the IC50 entry in data set [1] was “single digit micromolar potency”; in data set [1] (read-out: IC50), 5.34 µM. Moreover, the inhibition at 20 µM in data set [1] came out at 63.4 ± 2.31%.
As to `CCOC(=O)c1cnc2cc(Cl)c(F)cc2c1Nc1cccc(S(N)(=O)=O)c1` [5c, Ethyl 7-chloro-6-fluoro-4-((3-sulfamoylphenyl)amino)quinoline-3-carboxylate], in data set [1], the IC50 result is on record as “failed to inhibit” and the inhibition at 20 µM was 37.9 ± 1.31%.
As to `CCOC(=O)c1cnc2ccc(Br)cc2c1Nc1cccc(S(=O)(=O)NC)c1` [5d, Ethyl 6-Bromo-4-((3-(N-methylsulfamoyl)phenyl)amino)quinoline-3-carboxylate], the melting point lay in the range of 212.9 to 214.3 °C. In addition, the IC50 in data set [1] (read-out: IC50) came out at 0.639 µM. Moreover, in data set [1], the inhibition at 20 µM was 88.6 ± 0.97%.
For `CCOC(=O)c1cnc2ccc(OC)cc2c1Nc1cccc(NS(C)(=O)=O)c1` [5e, Ethyl 6-methoxy-4-((3-(methylsulfonamido)phenyl)amino)quinoline-3-carboxylate], the IC50 in data set [1] (read-out: IC50) came to 1.42 µM. In addition, the inhibition at 20 µM in data set [1] is 85.9 ± 0.94%.
Take `CCOC(=O)c1cnc2cc(Cl)c(F)cc2c1Nc1cccc(NS(C)(=O)=O)c1` [5f, Ethyl 7-chloro-6-fluoro-4-((3-(methylsulfonamido)phenyl)amino)quinoline-3-carboxylate]: in data set [1], the IC50 entry was “failed to inhibit; also recorded: No inhibition” and the inhibition at 20 µM is 27.2 ± 8.46%.
Take `CCOC(=O)c1cnc2ccc(Br)cc2c1Nc1cccc(S(C)(=O)=O)c1` [5g, Ethyl 6-Bromo-4-(3-methanesulfonylphenylamino)-quinoline-3-carboxylate]: in data set [1], the IC50 entry is given as “no CDK8/CycC complex inhibitory activity; also recorded: No inhibition” and the inhibition at 20 µM worked out at 22.4 ± 1.02%.
As to `CCOC(=O)c1cnc2ccc(OC)cc2c1Nc1cccc(S(C)(=O)=O)c1` [5h, Ethyl 6-methoxy-4-((3-(methylsulfonyl)phenyl)amino)quinoline-3-carboxylate], in data set [1], the IC50 entry is given as “No inhibition” and the inhibition at 20 µM came to 18.7 ± 0.48%.
Turning to `CCOC(=O)c1cnc2cc(Cl)c(F)cc2c1Nc1cccc(S(C)(=O)=O)c1` [5i, Ethyl 7-chloro-6-fluoro-4-((3-(methylsulfonyl)phenyl)amino)quinoline-3-carboxylate], in data set [1], the IC50 result is “failed to inhibit; also recorded: No inhibition” and the inhibition at 20 µM was 32 ± 0.82%.
On to `CN1CCN(C(=O)c2ccc3cc(CCNc4ncnc5ccc(C#N)cc45)ccc3c2)CC1` [Senexin B], for which, in data set [2] (ref McDermott et al., 2017, Rzymski et al., 2015, read-out: CDK8 modulation IC50), the IC50 was 0.024 µM.
As to `CN(C)[C@H]1C[C@@]23CC[C@@]4(O2)C(=CC[C@]2(C)[C@@H](c5ccc6ccncc6c5)CC[C@H]24)C=C3[C@@H](O)[C@@H]1O` [cortistatin A], in data set [3], the “anticancer activity in animal models of AML” value was “exhibited anticancer activity”. Further, the IC50 in data set [2] (ATP-competitive, ref Cee et al., 2009, Crown, 2017, Pelish et al., 2015, Rzymski et al., read-out: CDK8 inhibitory activity IC50) was 0.015 µM.
